Read-outs that look alike come from different tables or passages of the source.
Details: for Blood, % Dose in Whole Organ / Blood, % dose / 1 % body weight / Bone Ave, % Dose/1 % Body weight / Femur, % dose / 1 % body weight / Kidneys, % Dose in Whole Organ / Kidneys, % dose / 1 % body weight / Liver, % Dose in Whole Organ / Liver, % dose / 1 % body weight / Marrow, % Dose in Whole Organ / Marrow, % dose / 1 % body weight / Muscle, % Dose in Whole Organ / Muscle, % dose / 1 % body weight / Pelvis, % dose / 1 % body weight / Spine, % dose / 1 % body weight / Tibia, % dose / 1 % body weight / Urine, % Dose / W. Femur, % Dose in Whole Organ / W. Tibia, % Dose in Whole Organ: 2 Hrs; for Ratio 99mTc/85Sr, Ave Bone / Ratio 99mTc/85Sr, Blood / Ratio 99mTc/85Sr, Femur / Ratio 99mTc/85Sr, Kidneys / Ratio 99mTc/85Sr, Liver / Ratio 99mTc/85Sr, Marrow / Ratio 99mTc/85Sr, Muscle / Ratio 99mTc/85Sr, Pelvis / Ratio 99mTc/85Sr, Spine / Ratio 99mTc/85Sr, Tibia: 2 hours

Substance: 99m technetium-tin-1-amino-ethane-1,1-diphosphonate [99mTc-Sn-AEDP]
- Blood, % Dose in Whole Organ (AEDP 0.01 mg/kg): 1.18 % Dose
- Blood, % dose / 1 % body weight (AEDP 0.01 mg/kg): 0.168 % Dose/1 % Body weight
- Bone Ave, % Dose/1 % Body weight (AEDP 0.01 mg/kg): 7.60 % Dose/1 % Body weight
- Femur, % dose / 1 % body weight (AEDP 0.01 mg/kg): 7.54 % Dose/1 % Body weight
- Kidneys, % Dose in Whole Organ (AEDP 0.01 mg/kg): 1.59 % Dose
- Kidneys, % dose / 1 % body weight (AEDP 0.01 mg/kg): 2.72 % Dose/1 % Body weight
- Liver, % Dose in Whole Organ (AEDP 0.01 mg/kg): 1.69 % Dose
- Liver, % dose / 1 % body weight (AEDP 0.01 mg/kg): 0.617 % Dose/1 % Body weight
- Marrow, % Dose in Whole Organ (AEDP 0.01 mg/kg): 0.657 % Dose
- Marrow, % dose / 1 % body weight (AEDP 0.01 mg/kg): 0.300 % Dose/1 % Body weight
- Muscle, % Dose in Whole Organ (AEDP 0.01 mg/kg): 0.988 % Dose
- Muscle, % dose / 1 % body weight (AEDP 0.01 mg/kg): 0.037 % Dose/1 % Body weight
- Pelvis, % dose / 1 % body weight (AEDP 0.01 mg/kg): 8.53 % Dose/1 % Body weight
- Spine, % dose / 1 % body weight (AEDP 0.01 mg/kg): 6.20 % Dose/1 % Body weight
- Tibia, % dose / 1 % body weight (AEDP 0.01 mg/kg): 8.13 % Dose/1 % Body weight
- Urine, % Dose (AEDP 0.01 mg/kg): 48.39 % Dose
- W. Femur, % Dose in Whole Organ (AEDP 0.01 mg/kg): 2.34 % Dose
- W. Tibia, % Dose in Whole Organ (AEDP 0.01 mg/kg): 1.96 % Dose
- Blood, % Dose in Whole Organ (AEDP 0.05 mg/kg): 1.01 % Dose
- Blood, % dose / 1 % body weight (AEDP 0.05 mg/kg): 0.144 % Dose/1 % Body weight
- Bone Ave, % Dose/1 % Body weight (AEDP 0.05 mg/kg): 8.39 % Dose/1 % Body weight
- Femur, % dose / 1 % body weight (AEDP 0.05 mg/kg): 8.63 % Dose/1 % Body weight
- Kidneys, % Dose in Whole Organ (AEDP 0.05 mg/kg): 1.13 % Dose
- Kidneys, % dose / 1 % body weight (AEDP 0.05 mg/kg): 1.83 % Dose/1 % Body weight
- Liver, % Dose in Whole Organ (AEDP 0.05 mg/kg): 0.806 % Dose
- Liver, % dose / 1 % body weight (AEDP 0.05 mg/kg): 0.176 % Dose/1 % Body weight
- Marrow, % Dose in Whole Organ (AEDP 0.05 mg/kg): 0.549 % Dose
- Marrow, % dose / 1 % body weight (AEDP 0.05 mg/kg): 0.250 % Dose/1 % Body weight
- Muscle, % Dose in Whole Organ (AEDP 0.05 mg/kg): 1.20 % Dose
- Muscle, % dose / 1 % body weight (AEDP 0.05 mg/kg): 0.028 % Dose/1 % Body weight
- Pelvis, % dose / 1 % body weight (AEDP 0.05 mg/kg): 7.82 % Dose/1 % Body weight
- Spine, % dose / 1 % body weight (AEDP 0.05 mg/kg): 7.80 % Dose/1 % Body weight
- Tibia, % dose / 1 % body weight (AEDP 0.05 mg/kg): 9.30 % Dose/1 % Body weight
- Urine, % Dose (AEDP 0.05 mg/kg): 44.21 % Dose
- W. Femur, % Dose in Whole Organ (AEDP 0.05 mg/kg): 2.41 % Dose
- W. Tibia, % Dose in Whole Organ (AEDP 0.05 mg/kg): 2.14 % Dose
- Blood, % Dose in Whole Organ (AEDP 0.1 mg/kg): 0.96 % Dose
- Blood, % dose / 1 % body weight (AEDP 0.1 mg/kg): 0.137 % Dose/1 % Body weight
- Bone Ave, % Dose/1 % Body weight (AEDP 0.1 mg/kg): 7.51 % Dose/1 % Body weight
- Femur, % dose / 1 % body weight (AEDP 0.1 mg/kg): 7.93 % Dose/1 % Body weight
- Kidneys, % Dose in Whole Organ (AEDP 0.1 mg/kg): 0.913 % Dose
- Kidneys, % dose / 1 % body weight (AEDP 0.1 mg/kg): 1.28 % Dose/1 % Body weight
- Liver, % Dose in Whole Organ (AEDP 0.1 mg/kg): 0.309 % Dose
- Liver, % dose / 1 % body weight (AEDP 0.1 mg/kg): 0.083 % Dose/1 % Body weight
- Marrow, % Dose in Whole Organ (AEDP 0.1 mg/kg): 0.211 % Dose
- Marrow, % dose / 1 % body weight (AEDP 0.1 mg/kg): 0.096 % Dose/1 % Body weight
- Muscle, % Dose in Whole Organ (AEDP 0.1 mg/kg): 1.46 % Dose
- Muscle, % dose / 1 % body weight (AEDP 0.1 mg/kg): 0.034 % Dose/1 % Body weight
- Pelvis, % dose / 1 % body weight (AEDP 0.1 mg/kg): 6.24 % Dose/1 % Body weight
- Spine, % dose / 1 % body weight (AEDP 0.1 mg/kg): 7.36 % Dose/1 % Body weight
- Tibia, % dose / 1 % body weight (AEDP 0.1 mg/kg): 8.50 % Dose/1 % Body weight
- Urine, % Dose (AEDP 0.1 mg/kg): 38.8 % Dose
- W. Femur, % Dose in Whole Organ (AEDP 0.1 mg/kg): 2.38 % Dose
- W. Tibia, % Dose in Whole Organ (AEDP 0.1 mg/kg): 2.18 % Dose
- Blood, % Dose in Whole Organ (AEDP 0.5 mg/kg): 1.38 % Dose
- Blood, % dose / 1 % body weight (AEDP 0.5 mg/kg): 0.197 % Dose/1 % Body weight
- Bone Ave, % Dose/1 % Body weight (AEDP 0.5 mg/kg): 6.96 % Dose/1 % Body weight
- Femur, % dose / 1 % body weight (AEDP 0.5 mg/kg): 6.59 % Dose/1 % Body weight
- Kidneys, % Dose in Whole Organ (AEDP 0.5 mg/kg): 1.11 % Dose
- Kidneys, % dose / 1 % body weight (AEDP 0.5 mg/kg): 2.11 % Dose/1 % Body weight
- Liver, % Dose in Whole Organ (AEDP 0.5 mg/kg): 0.216 % Dose
- Liver, % dose / 1 % body weight (AEDP 0.5 mg/kg): 0.079 % Dose/1 % Body weight
- Marrow, % Dose in Whole Organ (AEDP 0.5 mg/kg): 0.23 % Dose
- Marrow, % dose / 1 % body weight (AEDP 0.5 mg/kg): 0.104 % Dose/1 % Body weight
- Muscle, % Dose in Whole Organ (AEDP 0.5 mg/kg): 0.883 % Dose
- Muscle, % dose / 1 % body weight (AEDP 0.5 mg/kg): 0.021 % Dose/1 % Body weight
- Pelvis, % dose / 1 % body weight (AEDP 0.5 mg/kg): 7.93 % Dose/1 % Body weight
- Spine, % dose / 1 % body weight (AEDP 0.5 mg/kg): 6.05 % Dose/1 % Body weight
- Tibia, % dose / 1 % body weight (AEDP 0.5 mg/kg): 7.27 % Dose/1 % Body weight
- Urine, % Dose (AEDP 0.5 mg/kg): 48.85 % Dose
- W. Femur, % Dose in Whole Organ (AEDP 0.5 mg/kg): 1.74 % Dose
- W. Tibia, % Dose in Whole Organ (AEDP 0.5 mg/kg): 1.55 % Dose
- Ratio 99mTc/85Sr, Ave Bone (0.01 mg/kg): 0.735
- Ratio 99mTc/85Sr, Blood (0.01 mg/kg): 0.406
- Ratio 99mTc/85Sr, Femur (0.01 mg/kg): 0.720
- Ratio 99mTc/85Sr, Kidneys (0.01 mg/kg): 4.99
- Ratio 99mTc/85Sr, Liver (0.01 mg/kg): 3.00
- Ratio 99mTc/85Sr, Marrow (0.01 mg/kg): 1.27
- Ratio 99mTc/85Sr, Muscle (0.01 mg/kg): 0.338
- Ratio 99mTc/85Sr, Pelvis (0.01 mg/kg): 0.794
- Ratio 99mTc/85Sr, Spine (0.01 mg/kg): 0.689
- Ratio 99mTc/85Sr, Tibia (0.01 mg/kg): 0.710
- Ratio 99mTc/85Sr, Ave Bone (0.05 mg/kg): 0.683
- Ratio 99mTc/85Sr, Blood (0.05 mg/kg): 0.409
- Ratio 99mTc/85Sr, Femur (0.05 mg/kg): 0.687
- Ratio 99mTc/85Sr, Kidneys (0.05 mg/kg): 3.30
- Ratio 99mTc/85Sr, Liver (0.05 mg/kg): 1.32
- Ratio 99mTc/85Sr, Marrow (0.05 mg/kg): 1.18
- Ratio 99mTc/85Sr, Muscle (0.05 mg/kg): 0.236
- Ratio 99mTc/85Sr, Pelvis (0.05 mg/kg): 0.684
- Ratio 99mTc/85Sr, Spine (0.05 mg/kg): 0.675
- Ratio 99mTc/85Sr, Tibia (0.05 mg/kg): 0.681
- Ratio 99mTc/85Sr, Ave Bone (0.1 mg/kg): 0.716
- Ratio 99mTc/85Sr, Blood (0.1 mg/kg): 0.409
- Ratio 99mTc/85Sr, Femur (0.1 mg/kg): 0.714
- Ratio 99mTc/85Sr, Kidneys (0.1 mg/kg): 2.94
- Ratio 99mTc/85Sr, Liver (0.1 mg/kg): 0.490
- Ratio 99mTc/85Sr, Marrow (0.1 mg/kg): 0.621
- Ratio 99mTc/85Sr, Muscle (0.1 mg/kg): 0.205
- Ratio 99mTc/85Sr, Pelvis (0.1 mg/kg): 0.725
- Ratio 99mTc/85Sr, Spine (0.1 mg/kg): 0.705
- Ratio 99mTc/85Sr, Tibia (0.1 mg/kg): 0.721
- Ratio 99mTc/85Sr, Ave Bone (0.5 mg/kg): 0.644
- Ratio 99mTc/85Sr, Blood (0.5 mg/kg): 0.280
- Ratio 99mTc/85Sr, Femur (0.5 mg/kg): 0.628
- Ratio 99mTc/85Sr, Kidneys (0.5 mg/kg): 2.47
- Ratio 99mTc/85Sr, Liver (0.5 mg/kg): 0.459
- Ratio 99mTc/85Sr, Marrow (0.5 mg/kg): 0.500
- Ratio 99mTc/85Sr, Muscle (0.5 mg/kg): 0.140
- Ratio 99mTc/85Sr, Pelvis (0.5 mg/kg): 0.692
- Ratio 99mTc/85Sr, Spine (0.5 mg/kg): 0.614
- Ratio 99mTc/85Sr, Tibia (0.5 mg/kg): 0.632

Source: patent US3989730A, “Bone-seeking technetium-99m complex” (priority 1973, dated 1976)
